Laboratory results: patent US20250215039A1, “NUCLEOSIDES FOR TREATING CANCER” (PRIMEFOUR THERAPEUTICS, INC., priority 2022, published 2025)
pIC50: −log10 of the molar value. Like-named read-outs stand apart in the source and are kept apart here.

What was measured:
cancer cell lines = experiment: Cancer cell proliferation activity (CellTiterGlo, 72 h); type: cell-based; details: 72 h, 72 h, read-out: IC50 cell proliferation
Procedure, shortened: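 Readout is CellTiterGlo luminescence after 72 h compound exposure (0.1% DMSO final), started one day post-seeding, at 37 °C.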

[1] = target: human cytidine deaminase (CDA) (Homo sapiens, UniProt P32320); experiment: Metabolism by human cytidine deaminase (CDA), substrate absorbance at 290 nm; details: rate of substrate conversion at 200 μM; could not be fitted
Chain of human cytidine deaminase (CDA) (P32320 whole entry): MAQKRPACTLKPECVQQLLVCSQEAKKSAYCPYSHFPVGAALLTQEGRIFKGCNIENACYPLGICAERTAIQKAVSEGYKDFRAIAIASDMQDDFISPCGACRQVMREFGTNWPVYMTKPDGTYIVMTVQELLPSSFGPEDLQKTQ

SMILES: Nc1ccn([C@H]2C[C@H](O)[C@](CO)(CF)O2)c(=O)n1 [Cpd. No. 198, 4-amino-1-((2R,4S,5R)-5-(fluoromethyl)-4-hydroxy-5-(hydroxymethyl)tetrahydrofuran-2-yl)pyrimidin-2(1H)-one]
- pIC50 (cancer cell lines; 5637 (bladder)): 6.35
- pIC50 (cancer cell lines; CLS439 (bladder)): 5.64
- pIC50 (cancer cell lines; HS729 (muscle)): 6.24
- pIC50 (cancer cell lines; J82 (bladder)): 6.12
- pIC50 (cancer cell lines; JAR (placenta)): < 4.30
- pIC50 (cancer cell lines; MT3 (breast)): 7.10
- pIC50 (cancer cell lines; PANCI (pancreas)): 6.21
- pIC50 (cancer cell lines; PC3 (prostate)): 6.74
- pIC50 (cancer cell lines; RD (muscle)): 5.99
- pIC50 (cancer cell lines; T24 (bladder)): 6.54
- pIC50 (cancer cell lines; Homo sapiens, A204, 72 h, A204 (muscle)): 7.70
- pIC50 (cancer cell lines; Homo sapiens, A549, 72 h, A549 (lung)): 6.36
- pIC50 (cancer cell lines; Homo sapiens, A2780, 72 h, A2780 (ovary)): 6.14
- pIC50 (cancer cell lines; Homo sapiens, A-375, 72 h, A375 (skin)): 6.15
- pIC50 (cancer cell lines; Homo sapiens, A-431, 72 h, A431 (skin)): 6.33
- pIC50 (cancer cell lines; Homo sapiens, ACHN, ACHN (kidney)): 6.41
- pIC50 (cancer cell lines; Homo sapiens, ASPC1, 72 h, ASPC1 (pancreas)): 6.24
- pIC50 (cancer cell lines; Homo sapiens, BT-20, 72 h, BT20 (breast)): 6.24
- pIC50 (cancer cell lines; Homo sapiens, BXPC-3, 72 h, BXPC3 (pancreas)): 6.27
- pIC50 (cancer cell lines; Homo sapiens, C-33-A, C33A (endometrial)): 6.62
- pIC50 (cancer cell lines; Homo sapiens, CAKI-1, 72 h, CAKI1 (kidney)): 6.96
- pIC50 (cancer cell lines; Homo sapiens, COLO 205, 72 h, COLO205 (colon)): 6.68
- pIC50 (cancer cell lines; Homo sapiens, Caco-2, 72 h, CACO2 (colon)): < 4.30
- pIC50 (cancer cell lines; Homo sapiens, Calu-6, 72 h, CALU6 (lung)): 6.14
- pIC50 (cancer cell lines; Homo sapiens, DU-145, 72 h, DU145 (prostate)): 6.51
- pIC50 (cancer cell lines; Homo sapiens, EFO-21, 72 h, EFO21 (ovary)): 6.10
- pIC50 (cancer cell lines; Homo sapiens, Granta-519, 72 h, GRANTA-519 (hematological)): 7.15
- pIC50 (cancer cell lines; Homo sapiens, HCT-15, 72 h, HCT15 (colon)): 6.34
- pIC50 (cancer cell lines; Homo sapiens, HCT-116, 72 h, HCT116 (colon)): 6.33
- pIC50 (cancer cell lines; Homo sapiens, HEK293, 72 h, HEK293 (kidney)): < 4.30
- pIC50 (cancer cell lines; Homo sapiens, HT-1080, 72 h, HT1080 (connective tissue)): 6.42
- pIC50 (cancer cell lines; Homo sapiens, HeLa, HELA (endometrial)): 6.00
- pIC50 (cancer cell lines; Homo sapiens, HepG2, 72 h, HEPG2 (liver)): 6.00
- pIC50 (cancer cell lines; Homo sapiens, Hs-578T, HS578T (breast)): 6.01
- pIC50 (cancer cell lines; Homo sapiens, IGROV-1, 72 h, IGROV1 (ovary)): 6.29
- pIC50 (cancer cell lines; Homo sapiens, JIMT-1, 72 h, JIMT1 (breast)): 6.72
- pIC50 (cancer cell lines; Homo sapiens, Kasumi 1, 72 h, KASUMI-1 (hematological)): 6.57
- pIC50 (cancer cell lines; Homo sapiens, L-363, 72 h, L-363 (hematological)): < 4.30
- pIC50 (cancer cell lines; Homo sapiens, LoVo, LOVO (colon)): 6.54
- pIC50 (cancer cell lines; Homo sapiens, MDA-MB-231, 72 h, MDAMB231 (breast)): 7.00
- pIC50 (cancer cell lines; Homo sapiens, MDA-MB-435, 72 h, MDAMB435 (skin)): 5.89
- pIC50 (cancer cell lines; Homo sapiens, MDA-MB-436, 72 h, MDAMB436 (breast)): 6.02
- pIC50 (cancer cell lines; Homo sapiens, MG-63, 72 h, MG63 (bone)): 6.32
- pIC50 (cancer cell lines; Homo sapiens, MINO, MINO (hematological)): 7.22
- pIC50 (cancer cell lines; Homo sapiens, MV4-11, 72 h, MV4-11 (hematological)): 6.08
- pIC50 (cancer cell lines; Homo sapiens, NCI-H23, 72 h, NCI-H23 (lung)): 6.14
- pIC50 (cancer cell lines; Homo sapiens, NCI-H292, 72 h, NCIH292 (lung)): 6.04
- pIC50 (cancer cell lines; Homo sapiens, NCI-H460, 72 h, NCIH460 (lung)): 6.11
- pIC50 (cancer cell lines; Homo sapiens, OVCAR-3, 72 h, OVCAR3 (ovary)): 6.19
- pIC50 (cancer cell lines; Homo sapiens, PLC-PRF-5, 72 h, PLCPRF5 (liver)): < 4.30
- pIC50 (cancer cell lines; Homo sapiens, Panc1005, 72 h, PANC1005 (pancreas)): < 4.30
- pIC50 (cancer cell lines; Homo sapiens, Ramos, RAMOS (hematological)): 6.62
- pIC50 (cancer cell lines; Homo sapiens, SAOS-2, 72 h, SAOS2 (bone)): 6.96
- pIC50 (cancer cell lines; Homo sapiens, SF-268, 72 h, SF268 (brain)): 6.59
- pIC50 (cancer cell lines; Homo sapiens, SK-BR-3, 72 h, SKBR3 (breast)): 6.59
- pIC50 (cancer cell lines; Homo sapiens, SK-HEP1, 72 h, SKHEP1 (liver)): 6.49
- pIC50 (cancer cell lines; Homo sapiens, SK-LMS-1, 72 h, SKLMS1 (uterus)): 6.07
- pIC50 (cancer cell lines; Homo sapiens, SK-N-SH, SKNSH (brain)): < 4.30
- pIC50 (cancer cell lines; Homo sapiens, SNB-75, 72 h, SNB75 (brain)): 6.26
- pIC50 (cancer cell lines; Homo sapiens, SU-DHL10, 72 h, SU-DHL-10 (hematological)): 6.25
- pIC50 (cancer cell lines; Homo sapiens, SU-DHL-6, 72 h, SU-DHL-6 (hematological)): 6.51
- pIC50 (cancer cell lines; Homo sapiens, THP-1, 72 h, THP-1 (hematological)): 6.19
- pIC50 (cancer cell lines; Homo sapiens, U-87 MG, U87MG (brain)): 6.40
- pIC50 (cancer cell lines; Homo sapiens, UO-31, 72 h, UO31 (kidney)): 6.26
- pIC50 (cancer cell lines; Homo sapiens, WSU-NHL, WSU-NHL (hematological)): 6.82
- pIC50 (cancer cell lines; NCI-H358M, NCIH358M (lung)): 6.92
- pIC50 (cancer cell lines; PBMC, PBMC (hematological)): 6.15
- pIC50 (cancer cell lines; RD-ES, RDES (bone)): 5.72
- substrate conversion by CDA (Inactive) [1]: Inactive
